Read-outs that look alike come from different tables or passages of the source.

These results are taken from publication PMC12678798, “Discovery of an allosteric binding site for anthraquinones at the human P2X4 receptor” (Nature Communications, 2025).

For one data set, the target named is T1, human wt P2X4 receptor (Homo sapiens, UniProt Q99571).
T1 construct: expressed in transfected cells
T1 sequence (Q99571 1-388): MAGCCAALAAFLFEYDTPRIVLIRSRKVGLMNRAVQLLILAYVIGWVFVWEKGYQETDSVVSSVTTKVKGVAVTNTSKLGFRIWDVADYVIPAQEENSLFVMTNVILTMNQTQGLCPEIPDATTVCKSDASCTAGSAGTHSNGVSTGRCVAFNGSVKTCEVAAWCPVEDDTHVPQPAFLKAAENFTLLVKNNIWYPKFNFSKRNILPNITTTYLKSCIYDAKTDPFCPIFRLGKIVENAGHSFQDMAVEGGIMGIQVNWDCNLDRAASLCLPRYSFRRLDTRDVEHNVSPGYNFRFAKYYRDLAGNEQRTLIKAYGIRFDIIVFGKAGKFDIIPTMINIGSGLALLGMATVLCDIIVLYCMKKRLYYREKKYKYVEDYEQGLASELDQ
Kind of data set: Homologous competition binding vs [35S]ATPγS, 1321N1 astrocytoma cell membranes. The following applies: 0.2 nM [35S]ATPγS, 1321N1 membranes. Here is the method:
(§1) Radioligand binding studies were performed according to a published procedure. […] After an incubation of 1 h at room temperature, the incubation was terminated by rapid vacuum filtration through GF/B glass fiber filters using a Brandel 48-well harvester (Brandel). The filters were rinsed three times with ice-cold Tris-HCl buffer (50 mM, pH 7.4, 3-4 mL each) to separate unbound from bound radioligand. After punching out the filters and transferring them into scintillation vials, scintillation cocktail (2.5 mL, Ultima Gold®) was added. The samples were measured after 6 h of preincubation using a liquid scintillation counter for 1 min each. All data from calcium influx assays and radioligand binding studies were analyzed using Microsoft Excel. […] KD and Bmax values from radioligand binding assays were calculated by using the “one site-homologous” equation, implemented in GraphPad Prism version 8.0. The level of significance was calculated by a one-way ANOVA with Dunnett's post hoc test, in case there was a control group, and multiple comparison was required. […] The significance levels were defined as follows: *P < 0.05, **P < 0.01, ***P < 0.001, ****P < 0.0001.

The target in data set [1] is T2, human solubilized and purified P2X4-E307T receptor mutant reconstituted into nanodiscs (Homo sapiens, UniProt Q99571, E307T/N184R/N75R).
T2 construct: The full-length human P2X4 receptor gene was subcloned into the pFastBac1 vector; Rho1D4 (fused by GSSG linker) (C); GSSG linker + human rhinovirus 3C protease site + 10x-His (C); made in house; host or cells: Sf9 insect cells (baculovirus)
T2 sequence (Q99571 whole entry N75R/N184R/E307T, the tested form may be a part): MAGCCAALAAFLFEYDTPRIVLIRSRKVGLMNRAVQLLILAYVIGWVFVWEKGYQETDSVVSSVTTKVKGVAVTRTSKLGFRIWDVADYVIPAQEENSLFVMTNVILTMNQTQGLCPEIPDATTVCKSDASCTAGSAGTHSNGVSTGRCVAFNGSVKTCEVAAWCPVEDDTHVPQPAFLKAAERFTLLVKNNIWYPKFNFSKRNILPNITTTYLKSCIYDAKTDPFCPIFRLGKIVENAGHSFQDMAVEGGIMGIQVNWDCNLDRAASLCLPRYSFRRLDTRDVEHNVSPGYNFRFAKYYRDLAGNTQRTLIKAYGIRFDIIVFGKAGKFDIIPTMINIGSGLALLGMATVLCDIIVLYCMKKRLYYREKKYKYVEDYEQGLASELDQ
Description: Homologous competition binding vs [35S]ATPγS, purified P2X4-E307T receptor in nanodiscs. The following applies: 0.2 nM [35S]ATPγS; P2X4-E307T construct in nanodiscs. Here is the method: as §1

Details of data set [2]: method as in not given. The conditions noted are these: rebuttal comparison table; ref not given; cited from earlier work.
Another data set concerns rat P2X4 receptors. Details: method as in not given. The conditions noted are these: ref not given; cited from earlier work.
The next data set deals with mouse P2X4 receptors. Details: method as in not given. The conditions noted are these: ref not given; cited from earlier work.
Data set [3] concerns the target human P2X4 receptor. Details: method as in ref 10.1016/j.heliyon.2023.e21265. The conditions noted are these: SPR competition assay; ref 10.1016/j.heliyon.2023.e21265; read-out: Potency (IC50 value) at the human P2X4 receptor; cited from earlier work.
For data set [4], the target named is human P2X4 receptor. Also noted: method as in https://doi.org/10.1124/mol.114.096222. The following applies: patch clamp, HEK293; ref https://doi.org/10.1124/mol.114.096222; read-out: Potency (IC50 value) at the human P2X4 receptor; cited from earlier work. (Patch clamp records ionic current or voltage across a cell membrane.)
On the set-up of data set [5]: method as in not given. The following applies: ref not given; cited from earlier work.
Data set [6] concerns human P2X4 receptor. Also noted: method as in not given. The conditions noted are these: assay and ref not given; cited from earlier work.

Consider `Nc1ncnc2c1ncn2[C@@H]1O[C@H](CO[P@](=O)(O)O[P@](=O)(O)O[P@@](=O)(O)S)[C@@H](O)[C@H]1O` [ATPγS], for which, on human wt P2X4 receptor, the Kd came to 14.1 ± 2.7 nM. For the same compound, the “Dissociation constant (KD value)” value in [1] amounted to 6.01 ± 0.81 nM.

On to `CC(C)c1cc(Br)c(NC(=O)Nc2cccnc2)c(Br)c1` [BX430], for which the Lipophilicity entry in data set [2] is recorded as “Lipophilic”. In addition, the “Potency at rat compared with human P2X4 receptors” value in the data set on rat P2X4 receptors is “significantly weaker”. Also, the “Potency at mouse compared with human P2X4 receptors” value in the data set on mouse P2X4 receptors is “significantly weaker”. The IC50 at human P2X4 receptor [3] was 4500 nM; on human P2X4 receptor [4], 540 nM.

`NS(=O)(=O)c1cc(NC(=O)Cc2ccccc2)ccc1Oc1cccc(Cl)c1` [BAY-1797, N-4-(3-chlorophenoxy)-3-sulfamoylphenyl-2-phenylacetamide]: the Oral bioavailability entry in data set [5] is “orally bioavailable”. The “Extent of receptor inhibition (no complete inhibition)” value in the data set with human P2X4 receptor [6] was “about 80%”.

In general, Kd refers to the constant that tells how readily two partners part at equilibrium. As usually defined, the IC50 is the concentration that inhibits the measured activity by half.
